Measured values taken from article PMC5829263, “Homoarginine and inhibition of human arginase activity: kinetic characterization and biological relevance” (Scientific Reports, 2018).
“And” between values parts separate entries of the source, which are not always exact repeats. Equal entries are not always repeated. “Also recorded” adds a separate entry of the source.

Tests used:
arginase 2 [1] = settings: arginase 2 inhibition; ref Colleluori and Ash 17; cited from earlier work
arginase 1 [2] = settings: arginase 1 inhibition; ref Ikemoto et al. 12; cited from earlier work
[3] = molecular target: T1, recombinant human arginase 1 (Homo sapiens, UniProt P05089); assay: Arginase 1 inhibition, UPLC-MS measurement of ARG to ORN conversion in HEK293T cell lysate; settings: for % of control activity at the corresponding [Inhibitor] ± SE: mean of two experiments;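 on all read-outs here: arginase 1–expressing HEK293T lysate at 0.05 mg/mL in pH 7.4 phosphate buffer, inhibitor preincubated 5 min with enzyme, then reaction started by adding ARG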
T1 sequence (P05089 1-322): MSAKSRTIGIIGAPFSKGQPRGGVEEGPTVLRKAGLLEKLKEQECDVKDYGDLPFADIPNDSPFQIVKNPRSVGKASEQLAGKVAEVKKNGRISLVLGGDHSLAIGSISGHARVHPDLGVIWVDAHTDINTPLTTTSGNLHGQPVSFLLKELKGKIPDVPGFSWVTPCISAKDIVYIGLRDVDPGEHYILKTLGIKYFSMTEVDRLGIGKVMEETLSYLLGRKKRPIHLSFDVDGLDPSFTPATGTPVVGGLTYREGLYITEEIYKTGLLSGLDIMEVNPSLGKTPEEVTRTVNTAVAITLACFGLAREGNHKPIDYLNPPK
Description: Following a 5-min pre-equilibration period reactions were initiated by the addition of the cell lysate solution in 0.05 M phosphate buffer to a pre-equilibrated aqueous solution of the substrate (ARG).
The samples were vortex mixed (20 sec) and cooled in an ice/water bath for 10 min prior to centrifugation (5 min, 18,000 × g, room temperature) to precipitate the proteins. An aliquot of the supernatant layer was diluted with a 7:3 mobile phase A/mobile phase B solution into glass UPLC vial inserts.
Incubation mixtures comprised of HEK293T cell lysate expressing arginase 1 (0.05 mg/mL) or arginase 2 (0.1 mg/mL), phosphate buffer (0.05 M, pH 7.4), inhibitor (0, 0.1, 1, 10, 100, 1000 or 10000 μM) and ARG (0.1, 2 or 3 mM). Following a 5-min pre-incubation of the potential inhibitor with arginase 1 or arginase 2, reactions were initiated by the addition of a pre-equilibrated solution of the substrate ARG.
Ki values were derived from fitting the competitive inhibition equation to experimental data. Ki data are the mean of three singlicate experiments.

arginase 2 [4] = assay: HOMOARG as a substrate for arginase 2, formation of LYS by UPLC-MS; type: biochemical, human; settings: LYS limit of detection 0.3 µM
[5] = molecular target: T2, recombinant human arginase 2 (Homo sapiens, UniProt P78540); assay: Arginase 2 inhibition, UPLC-MS measurement of ARG to ORN conversion in HEK293T cell lysate; settings: for % of control activity at the corresponding [Inhibitor] ± SE: mean of two experiments;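 on all read-outs here: HEK293T lysate carrying arginase 2 at 0.1 mg/mL in 0.05 M phosphate buffer pH 7.4, inhibitor preincubated with enzyme 5 min before ARG addition started the reaction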
T2 sequence (P78540 23-354): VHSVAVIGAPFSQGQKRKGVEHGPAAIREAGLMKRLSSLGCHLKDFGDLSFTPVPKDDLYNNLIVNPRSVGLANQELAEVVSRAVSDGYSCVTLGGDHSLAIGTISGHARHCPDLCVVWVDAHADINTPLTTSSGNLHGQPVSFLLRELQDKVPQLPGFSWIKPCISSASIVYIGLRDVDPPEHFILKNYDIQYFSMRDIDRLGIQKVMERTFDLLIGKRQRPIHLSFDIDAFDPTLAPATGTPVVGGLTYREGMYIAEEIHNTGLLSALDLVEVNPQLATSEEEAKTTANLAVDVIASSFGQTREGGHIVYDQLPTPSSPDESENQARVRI

arginase 1 [6] = assay: HOMOARG as a substrate for arginase 1, formation of LYS by UPLC-MS; type: biochemical, human; settings: LYS limit of detection 0.3 µM

Structure (SMILES): N=C(N)NCCCC[C@H](N)C(=O)O [HOMOARG, homoarginine]
- Ki (arginase 2 [1]): 39 mM
- Ki (arginase 1 [2]): 5 to 5.2 mM
- inhibition of arginase 1 activity ([3]; ARG 100 µM (physiological), inhibitor 1 mM): 30%
- inhibition of arginase 1 activity ([3]; ARG 100 µM (physiological), inhibitor 10 mM): 76%
- inhibition of arginase 1 activity ([3]; ARG 3 mM (Km), inhibitor 1 mM): 14%
- inhibition of arginase 1 activity ([3]; ARG 3 mM (Km), inhibitor 10 mM): 50%
- inhibitory effect on arginase 1 activity at physiological inhibitor concentrations ([3]; LYS 100–1000 µM, HOMOARG 1–10 µM): no significant inhibitory effects
- % of control activity at the corresponding [Inhibitor] ± SE ([3]; arginase 1, ARG 100 µM, inhibitor 1 µM): 112 ± 4%
- % of control activity at the corresponding [Inhibitor] ± SE ([3]; arginase 1, ARG 100 µM, inhibitor 10 µM): 107 ± 4%
- % of control activity at the corresponding [Inhibitor] ± SE ([3]; arginase 1, ARG 100 µM, inhibitor 100 µM): 85 ± 1%
- % of control activity at the corresponding [Inhibitor] ± SE ([3]; arginase 1, ARG 100 µM, inhibitor 1,000 µM): 70 ± 1%
- % of control activity at the corresponding [Inhibitor] ± SE ([3]; arginase 1, ARG 100 µM, inhibitor 10,000 µM): 24 ± 8%
- % of control activity at the corresponding [Inhibitor] ± SE ([3]; arginase 1, ARG 3 mM, inhibitor 1 µM): 106 ± 7%
- % of control activity at the corresponding [Inhibitor] ± SE ([3]; arginase 1, ARG 3 mM, inhibitor 10 µM): 110 ± 1%
- % of control activity at the corresponding [Inhibitor] ± SE ([3]; arginase 1, ARG 3 mM, inhibitor 100 µM): 96 ± 6%
- % of control activity at the corresponding [Inhibitor] ± SE ([3]; arginase 1, ARG 3 mM, inhibitor 1,000 µM): 86 ± 13%
- % of control activity at the corresponding [Inhibitor] ± SE ([3]; arginase 1, ARG 3 mM, inhibitor 10,000 µM): 50 ± 1%
- activity retained vs. control ([3]; arginase 1, physiological HOMOARG concentrations (1–10 µM)): 90%
- inhibition model fitting the data ([3]; arginase 1, poorly fit by uncompetitive, noncompetitive and mixed models): competitive
- IC50 ([3]; read-out: IC50 ( ± SE), arginase 1, ARG 3 mM): 8.14 ± 0.52 mM
- Ki ([3]; read-out: Ki ( ± SE), arginase 1, competitive inhibition model, ARG 0.6–15 mM): 6.1 ± 0.5 mM
- substrate activity, formation of LYS from HOMOARG (arginase 2 [4]): could not detect; also recorded: not a substrate
- inhibition of arginase 2 ([5]; ARG 100 µM, inhibitor 1 mM): 47%
- inhibition of arginase 2 ([5]; ARG 100 µM, inhibitor 10 mM): 88%
- % of control activity at the corresponding [Inhibitor] ± SE ([5]; arginase 2, ARG 100 µM, inhibitor 1 µM): 107 ± 2%
- % of control activity at the corresponding [Inhibitor] ± SE ([5]; arginase 2, ARG 100 µM, inhibitor 10 µM): 105 ± 5%
- % of control activity at the corresponding [Inhibitor] ± SE ([5]; arginase 2, ARG 100 µM, inhibitor 100 µM): 100 ± 5%
- % of control activity at the corresponding [Inhibitor] ± SE ([5]; arginase 2, ARG 100 µM, inhibitor 1,000 µM): 53 ± 4%
- % of control activity at the corresponding [Inhibitor] ± SE ([5]; arginase 2, ARG 100 µM, inhibitor 10,000 µM): 12 ± 5%
- % of control activity at the corresponding [Inhibitor] ± SE ([5]; arginase 2, ARG 2 mM, inhibitor 1 µM): 95 ± 3%
- % of control activity at the corresponding [Inhibitor] ± SE ([5]; arginase 2, ARG 2 mM, inhibitor 10 µM): 106 ± 2%
- % of control activity at the corresponding [Inhibitor] ± SE ([5]; arginase 2, ARG 2 mM, inhibitor 100 µM): 94 ± 2%
- % of control activity at the corresponding [Inhibitor] ± SE ([5]; arginase 2, ARG 2 mM, inhibitor 1,000 µM): 72 ± 1%
- % of control activity at the corresponding [Inhibitor] ± SE ([5]; arginase 2, ARG 2 mM, inhibitor 10,000 µM): 15 ± 8%
- activity retained vs. control ([5]; arginase 2, physiological HOMOARG concentrations (1–10 µM)): 90%
- inhibition model fitting the data ([5]; arginase 2, poorly fit by uncompetitive, noncompetitive and mixed models): competitive
- inhibition of arginase 2 at physiological inhibitor concentrations ([5]; physiological LYS and HOMOARG concentrations): no significant inhibition
- IC50 ([5]; read-out: IC50 ( ± SE), arginase 2, ARG 2 mM): 2.5 mM and 2.52 mM
- Ki ([5]; read-out: Ki ( ± SE), arginase 2, competitive inhibition model, ARG 0.5–8 mM): 1.7 mM and 1.73 mM
- substrate activity, formation of LYS from HOMOARG (arginase 1 [6]): could not detect; also recorded: not a substrate
